We go through one compound from patent US10736909B2, “Use of trehalose for treatment of neurological diseases” (JUNAXO, INC., priority 2016, dated 2020).

Where two headings read alike, the source gives them in different places.

One series deals with rats receiving A53T αSYN. Nature of the series: Cylinder test of forelimb asymmetry in AAV1/2 A53T αSYN rat model of PD. Conditions: Day 42, 2.67 g/kg, once per day p.o. It counts as in vivo, Sprague-Dawley rats. As to the method:
Thirty female, Sprague-Dawley rats (280-325 g) split into 5 groups (N=4-8 rats/group) and received a unilateral injection in to the substantia nigra (at co-ordinates AP −5.2 mm; ML −2 mm relative to Bregma, DV −7.5 mm relative to skull over SN) of AAV1/2 delivering A53T alpha-synuclein (AAV1/2 αSYN) or empty vector (control). The A53T αSyn expressed is of the human sequence. Its control is an empty AAV1/2 vector of the same serotype and viral construction. Both AAV1/2 vectors were diluted in sterile phosphate buffered saline and administered at a volume of 2 μl. […]
Animal behavior was assessed pre-surgery and at 3 and 6 weeks post-surgery. Behaviour was assessed by the cylinder test to assess forelimb asymmetry with asymmetry indicating an imbalance in striatal dopaminergic function between the side injected with AAV1/2 αSYN and the contralateral side. […] Striatal tissue from both hemispheres was collected and analysed for dopamine levels. Substantia nigra tissue was collected and analysed for the number of TH^+ve cells and the amount of A53T αSYN measured. Plasma and brain (cerebellum) samples were collected and trehalose levels analysed by LC-MS/MS.

Series [1] is described as follows: Plasma, brain and CSF trehalose levels in macaques after 17 weeks administration. The format is in vivo, cynomolgus monkeys (Macaca fascicularis). Conditions: 2.67 g/kg/day p.o. 17 weeks; for concentration at 1 h: female, cynomolgus monkey, po, 1 h after final administration. An excerpt: Twenty-five (25), female cynomolgus monkeys (Macaca fascicularis, 8.0-9.3 years of age, 3.2-4.4 kg) were split into 3 groups (n=8-9/group) and received stereotaxic injection of AAV vectors,either a vector expressing mutant A53T human alpha-synculein (AAV1/2-A53T-alpha-synuclein) or an empty vector (AAV1/2-EV), Genedetect, Auckland, New Zealand) into the substantia nigra. The A53T aSyn expressed is of the human sequence the AAV1/2-EV is a control vector of the same serotype and viral construction. Precise stereotaxic coordinates for all surgeries were calculated prior to surgery from individual monkey MRI scans. Injections containing the AAV1/2-A53T-alpha-synuclein or empty vector were made at a speed of 0.5 μl/min and a volume of 7 μl (at a viral titre of 1.7×10^12 active particles per ml) into 4 sites of each hemisphere of the substantia nigra. Commencing on the day of surgery and continuing for 17 weeks, macaques received either vehicle (sterile drinking water) or trehalose (2.67 g/kg/day) administered as a single daily administration (2.67 g/kg/day, p.o). The macaques were then killed and striatal tissue from both hemispheres was collected and analysed for dopamine and dopamine transporter (DAT) levels. Substantia nigra tissue was collected and analysed for the number of TH^+ve cells and the amount of αSYN measured. Plasma, CSF and brain (cerebellum) samples were collected and trehalose levels analysed by LC-MS/MS.
Single plasma, brain and CSF samples were collected 1 h after the final administration of trehalose. One-hour post-dose corresponds to approximately the Tmax of orally administered trehalose in macaques. The plasma, brain and CSF trehalose levels were 2449±884 ng/ml, 129±35 ng/g and 33±9 ng/ml respectively.

Series [2] deals with Chronic MPTP-lesioned mouse. The conditions noted are these: 1% in the drinking water; Ferguson et al. 2015; cited from earlier work.
Series [3] concerns Transgenic α-synuclein mouse. The conditions noted are these: 2% trehalose in drinking water; Tanji et al. 2015; cited from earlier work.
The subject of another series is α-synuclein (αSYN). The conditions noted are these: rodent models of PD; Tanji et al., He et al., Wu et al. 2015; cited from earlier work.

Regarding `OC[C@H]1O[C@H](O[C@H]2O[C@H](CO)[C@@H](O)[C@H](O)[C@H]2O)[C@H](O)[C@@H](O)[C@@H]1O` [trehalose, (2R,3S,4S,5R,6R)-2-(Hydroxymethyl)-6-[(2R,3R,4S,5S,6R)-3,4,5-trihydroxy-6-(hydroxymethyl)oxan-2-yl]oxyoxane-3,4,5-triol], the “% asymmetry (mean ± s.e.mean)” value in the series on rats receiving A53T αSYN is recorded as “reduced the asymmetry”. Besides, the “correlation of trehalose level in the CSF with level in the brain” value in series [1] is “significantly correlated”. The concentration at 1 h in series [1] (CSF, read-out: CSF trehalose level) is 33 ± 9 ng/mL; in series [1] (brain (cerebellum), read-out: brain trehalose level), 129 ± 35 ng/g; in series [1] (plasma, read-out: plasma trehalose level), 2450 ± 884 ng/mL. For the same compound, the “Effect (behavioural)” value in series [2] is listed as “No behavioural”. For the same compound, the “Effect on dopamine levels” value in series [2] was “effect. Some”. Besides, the “Effect (autophagy)” value in series [3] was “Increased”. For the same compound, in the series with α-synuclein (αSYN), the “levels of α-synuclein (αSYN)” value is recorded as “reduces”.
